Each structure is given as a SMILES string.

The values that follow come from a melting point compilation (Tetko et al.; mined from patent text by program, amines drawn as free bases though some values may be those of a salt).

`Cc1cc2c(c3ccc(=O)[nH]c13)O[C@@H](CN)[C@@H]2CO` (racemic): the melting point – broadly, the temperature of the solid-liquid transition – is over 300 °C.

Compound `COc1ccc(COC(=O)c2cc([N+](=O)[O-])c3ccccc3c2OS(=O)(=O)C(F)(F)F)cc1` came in with a melting point of 74 to 75 °C.

`CS(=O)c1[nH]ccc1[N+](=O)[O-]` (centres undefined) yielded a melting point of 162 to 164 °C.

Regarding `COc1ccc2c(c1)CCC(n1cc[nH]c1=S)C2` (centres undefined), the melting point is 226 to 227 °C.

For `CCOc1cc2c(cc1OCC)CCCC(C(=O)N1CCN(Cc3cc(OC)c(OC)c(OC)c3)CC1)=C2`, the melting point lay within 133 to 134 °C.

With `Oc1ccc2c(c1CNc1ccccc1)CCCO2`, the melting point lay in the range of 105 to 107 °C.

Regarding `CN1C(=O)COc2cc3c(cc21)C1(CO3)C(=O)N(CC2CCCO2)c2ccccc21` (centres undefined), the melting point was 79 to 81 °C.

In the case of `CC(C)(CC(N)=O)C(Br)(Br)Br`, the melting point was in the range of 109 to 111 °C.

`OCc1ccc(Cn2nc(OCc3ccccc3)c3ccccc32)o1` yielded a melting point of 80 to 82 °C.

On to `O=C(NCc1ccc(Cl)cc1Cl)N1CCc2[nH]cnc2C1CCC1CCCCC1` (centres undefined), for which the melting point was in the range of 185 to 187 °C.

Turning to `COc1ccc(N(CCCC(=O)N(CCCC(=O)O)c2c(C)cccc2C)C(=O)c2ccc(Cl)cc2)cc1`, the melting point is 131 to 133 °C.

Consider `CCN(C(=O)Cc1ccc(S(C)(=O)=O)cc1)C1CCN(C(=O)OC(C)(C)C)CC1`, for which the melting point fell in the range of 138 to 140 °C.

In turn, `Cc1cc(C)c(Nc2nc(C)ccc2S(=O)(=O)c2ccc(OCCCO)cc2)c(C)c1` registered a melting point of 152 to 153 °C.

In turn, `Cc1ccc(C=O)c(OCc2ccc(OCc3nc(-c4ccccc4)oc3C)cc2)n1` yielded a melting point of 114 to 115 °C.

In the case of `CC(=O)Nc1ccc(C(=S)N2CCCCC2)cc1`, the melting point was in the range of 202 to 203 °C.

Consider `CC1C(c2ccc(Cl)cc2)SC(=O)N1C(=O)NN1CCCCC1` (centres undefined), for which the melting point lay within 92 to 93 °C.

`CC(=O)Oc1ccccc1C(=O)NC(S(=O)C(C)C)C(Cl)(Cl)Cl` (centres undefined) gave a melting point of 90 to 92 °C.

Regarding `COc1ccc(CCN2CCC(C(O)(c3cc4ccccc4s3)c3cc4ccccc4s3)CC2)cc1`, the melting point is 168 to 179 °C.

`CC(N)=CC(=O)CS(=O)(=O)NC(C)C` returned a melting point of 119 to 121 °C.

In turn, `c1nc(-c2ccc3c(c2)OCO3)c2cc3c(cc2n1)OCO3` showed a melting point of 180 to 185 °C.

The compound `Cn1cnc(C2C(Cl)=CC=CC2(F)Cc2ccc(Cl)cc2)n1` (centres undefined) came in with a melting point of 78.5 to 80.5 °C.

With `CC(=O)OCC(=O)Nc1cccc(Cl)c1C#N`, the melting point was 109 to 110 °C.

For `O=C(NCCN1CCOCC1)NCc1ccc2c(c1)Cc1c(-c3ccsc3)n[nH]c1-2`, the melting point is 168 to 170 °C.

The compound `COc1cc2ncc(C#N)c(Nc3cc(Br)c(O)c(Br)c3)c2cc1OC` gave a melting point of over 250 °C.

Compound `CCC(C)NC1=NS(=O)(=O)c2cc([N+](=O)[O-])ccc2N1` (centres undefined) had a melting point of 287 to 288 °C.

`CCCCC1(N(C)C)CC=C(c2[nH]c3ccccc3c2Cc2ccccc2)CC1` (centres undefined): the melting point was 107 to 115 °C.

As to `COc1ccccc1-n1cnc2c(C(N)=O)nc(-c3ccccc3O)nc21`, the melting point fell in the range of 278 to 280 °C.

In the case of `CCCN(C)C(=O)N(C)C(=O)Nc1ccccc1`, the melting point is 63 to 64 °C.

Regarding `CC(C)(C)c1cc(Cc2nc(S)n[nH]2)cc(C(C)(C)C)c1O`, the melting point lay in the range of 184 to 185 °C.

For the compound `Nc1nn(CCN2CCCCC2)cc1-c1ccccc1`, the melting point stood at 96 °C.

Consider `CCOC(=O)c1cnc2ccc(OC)nc2c1Nc1ccc(OC)cc1`, for which the melting point fell in the range of 115 to 117 °C.

`CC(C)CCSc1cc(C(=O)O)cc(S(=O)(=O)Cl)c1Oc1ccccc1`: the melting point was 168 to 169 °C.

As for `CCc1ccc2c(c1)CC(=O)N2c1c(C)cccc1Cl`, the melting point lay in the range of 125 to 126 °C.

Turning to `CCCCOc1ccc(S(=O)(=O)C2(C(=O)O)CCN(C)CC2)cc1`, the melting point is 118 °C.

`Cn1c(=O)sc2cc(N3C[C@H](CN)OC3=O)ccc21` showed a melting point of 217 °C.

`Cc1ccc2c3c(c(=O)[nH]c2c1)C(=O)c1ccccc1-3` came in with a melting point of over 290 °C.

As for `Cc1cc(O)c2c(c1C)C(=O)CC2`, the melting point lay in the range of 171 to 173 °C.

`COc1cccc(-c2ccc3cc(OC)ccc3c2C(=O)c2ccc(O)cc2)c1` came in with a melting point of 158 to 159 °C.

Consider `COc1cc(OC)cc(-c2ncn(-c3cc(OC)c(OC)c(OC)c3)c2-c2ccc(OC)c(O)c2)c1`, for which the melting point lay within 110 to 111 °C.

In turn, `COc1ccccc1N1CCN(CCCCNc2cc(Cl)nnc2Cl)CC1` returned a melting point of 155 to 170 °C.

Turning to `CC(C)(C)c1cc(SC2CCN(S(=O)(=O)c3ncc(CO)[nH]3)CC2)cc(C(C)(C)C)c1O`, the melting point lay within 122 to 123 °C.

`CN1CC(CCCl)N(C)c2nc3ccccc3n2C1=O` (centres undefined): the melting point lay in the range of 158 to 159 °C.

Compound `O=c1ccn(-c2ccccc2N2CCOCC2)nc1-c1ccnn1-c1ccccc1` returned a melting point of 200 to 201 °C.

`Cc1onc(-c2ccccc2)c1-c1[nH]c2ccccc2c1CCC(=O)O`: the melting point was 170 to 172 °C.

For the compound `COP(=S)(OC)Oc1nc(OCc2ccccc2)sc1C#N`, the melting point was 47 °C.

With `CCCCCCC1C(=O)NC(C(=O)SCCC(=O)OC)(C(O)C2C=CCCC2)C1(C)O` (centres undefined), the melting point stood at 64 °C.

Compound `Cc1cc(C2(C(F)(F)F)CC(c3ccc(F)cc3)=NO2)ccc1NC(=O)c1cccc(I)c1C(=O)NC(C)C` (centres undefined) registered a melting point of 128 to 130 °C.

`Cc1nc(-c2cccc(-c3nc4sccn4c3-c3ccnc(N[C@@H]4CCCN(C(=O)OC(C)(C)C)C4)n3)c2)no1` yielded a melting point of 110 to 112 °C.

Take `CCC1c2c(ncn2C)CCN1C(=S)NC(C)C` (centres undefined): the melting point came out at 196 °C.

Regarding `CCCc1nc2c(N)nc3cc(OCc4ccccc4Cl)ccc3c2n1CC(C)C`, the melting point was in the range of 216 to 218 °C.

Consider `O=C(O)c1c(Cl)ccc2c1OCCO2`, for which the melting point was determined as 162 °C.

Take `O=S(=O)(c1ccccc1)n1ccc2c(OCC3CO3)cccc21` (centres undefined): the melting point was determined as 96 °C.

As for `Cc1nnc(Sc2c(C)cccc2C)o1`, the melting point fell in the range of 53 to 54 °C.

Turning to `CC1(C)C2C=CC3(C)C(C2)C(=O)CCC13O` (centres undefined), the melting point fell in the range of 112 to 115 °C.

The compound `Cc1nnc2n1-c1ccc([N+](=O)[O-])cc1C(c1ccccc1F)=NC2(C)C` returned a melting point of 195 °C.

Regarding `O=Cc1cc([N+](=O)[O-])c(CCl)cc1O`, the melting point worked out at 135 °C.

Compound `Oc1nc2nc(SCc3ccccc3)nn2c(O)c1-c1c(F)cc(F)cc1F` came in with a melting point of 273 °C.

On to `Cc1cc(C)cc(C(=O)N(C)[C@H](Cc2ccccc2)C(=O)N[C@@H](Cc2c[nH]c3ccccc23)C(=O)O)c1`, for which the melting point is 91 to 94 °C.

On to `Cc1ccc2c(c1)c1c(n2Cc2ccccc2)CCCC1C(=O)O` (centres undefined), for which the melting point lay in the range of 200 to 208 °C.

In turn, `CCCn1c(COCC)nc2c(N)nc3ccc(OCc4cccnc4)cc3c21` yielded a melting point of 190 to 191 °C.

Turning to `Nc1cccn2nc(SCc3ccccc3)nc12`, the melting point is 116 to 117 °C.

The compound `Cc1ccc(N2CCN(Cc3n[nH]c4ccccc34)CC2)nc1` showed a melting point of 151 to 153 °C.

Take `CC(C)(C)OC(=O)NCc1cccc(C(O)c2cc(Cl)ccc2NCc2ccc(OCc3ccccc3)c(OCc3ccccc3)c2)c1` (centres undefined): the melting point was in the range of 118 to 120 °C.

As for `CCOC(=O)OC1CCN(C(=O)OCC)Cc2c1nc1ccccc1c2C` (centres undefined), the melting point was 40 °C.

Compound `N#Cc1ccc(/C=C/C=C/C=O)cc1` gave a melting point of 147 to 150 °C.

For `COc1cccc(COc2ccc(S(=O)(=O)c3ccc(C)nc3Nc3c(C)cc(C)cc3C)cc2)c1`, the melting point was in the range of 124 to 126 °C.

As to `CONC(=N)c1nc(C)c(I)c(NCC(F)(F)F)n1`, the melting point is 150 to 152 °C.

`NC(=O)C(c1ccc(F)c(F)c1)c1ccccn1` (racemic) came in with a melting point of 123 to 124 °C.

Turning to `O=C1[C@H](CC[C@H](O)c2ccc(F)cc2)[C@@H](c2ccc(Br)cc2OCc2ccccc2)N1c1ccccc1`, the melting point is 114 °C.

Compound `COC(=O)c1sc(-c2ccccc2)c(Br)c1O` yielded a melting point of 85 to 87 °C.

With `Cc1noc(NS(=O)(=O)c2cc(S(=O)(=O)c3ccccc3)cs2)c1Br`, the melting point lay within 181 to 184 °C.

In turn, `O=c1[nH]cnc2ccc(C=Cc3ccncc3)cc12` registered a melting point of 307 to 309 °C.

Turning to `Cc1cnc(C2=NC(C)(C(C)C)C(=O)N2)c(C(=O)c2cccs2)c1` (centres undefined), the melting point is 168 to 170 °C.

Regarding `COc1cc2ncc(C#N)c(Nc3cccc(NC(C)=O)c3)c2cc1OC`, the melting point fell in the range of 147 to 150 °C.

Regarding `CC(Cc1cccnc1)NC(=O)[C@@H]1C[C@H](C)CC[C@H]1C(C)C` (some centres undefined), the melting point was 108 to 110 °C.

With `CC1CCCN(C(=O)C2C(C)c3ccccc3N2c2ccc(Cl)nn2)C1` (centres undefined), the melting point lay within 169 to 171 °C.

Compound `CCOC(=O)C1=C(C)NC(C)=C(C#N)C1c1ccnc2ncc(-c3ccccc3)cc12` (centres undefined) came in with a melting point of 265 °C.

In the case of `CC(C)CCC(O)C(CC1CCCCC1)NC(=O)C(Cc1c[nH]cn1)N(C)C(=O)C(Cc1ccccc1)NC(=O)N1CCOCC1` (centres undefined), the melting point was 102 to 108 °C.

`Cc1cc2c(-c3cccnc3Cl)nc(O)nc2s1` yielded a melting point of over 300 °C.

As to `COCCCS(=O)(=O)NC(=O)CCc1cc(OCC2CC2)nn1Cc1ccc(C(F)(F)F)cc1Cl`, the melting point was in the range of 152 to 154 °C.

As for `CCOC(=O)C=Cc1ccc(C=Cc2ccc(Br)cc2)cc1`, the melting point was determined as 167 °C.

For the compound `CNC(=S)C1(c2cccc(C)n2)CCCCS1=O` (centres undefined), the melting point turned out to be 234 °C.

For the compound `CCCSc1ncc(CC(NC(=O)CCC)C(=O)O)n1Cc1ccccc1Cl` (centres undefined), the melting point is 178 to 181 °C.

`O=C(NOCCBr)Nc1ccc(Cl)c(Cl)c1`: the melting point was 126 °C.

`O=S(=O)(c1ccccc1)C(F)(F)C(F)Cl` (centres undefined) showed a melting point of 38 to 39 °C.

In the case of `Nc1nc(=O)c2ncn(C3OC4COP(=O)(O)OC4C3O)c2[nH]1` (centres undefined), the melting point was 91.6 to 93.7 °C.

Take `COCCOc1ccc(/C=C/C(=O)NS(=O)(=O)c2cccc(C)c2)c(Oc2ncc(C(F)(F)F)cc2Cl)c1`: the melting point lay in the range of 147 to 148 °C.

For `OCCOc1cccc2ncccc12`, the melting point lay within 109 to 111 °C.

Regarding `O=C(Oc1ccccc1)c1ncn2c1CN(C(=O)N1CCCC1)c1ccccc1-2`, the melting point was 196 to 199 °C.
